Article PMC6979384, “Characterization of the plant homeodomain (PHD) reader family for their histone tail interactions” (Epigenetics & Chromatin, 2020)

What was measured:
Assay in all cases: Histone peptide microarray
Type in all cases: binding, human
[1] = tested on: CHD5 (PCC); settings: GST-tagged CHD5 (PCC = PHD + Dual Chromodomain); sheet Array Heatmap; each array performed twice, total n = 4
Summary of the method: (§1)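 Binding of recombinant GST-fused PHD readers (0.5 μM) is detected on an array of 293 histone peptides, modified singly or in combination. An optimized array protocol is followed, and each intensity is the average of quadruplicate measurements with standard deviation.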

[2] = tested on: CHD4 (PPCC); settings: for Array Heatmap signal (histone peptide microarray): GST-tagged CHD4 (PPCC = Dual PHD + Dual Chromodomain), sheet Array Heatmap, each array performed twice, total n = 4
Summary of the method: as §1

[3] = tested on: AIRE (PP); settings: GST-tagged AIRE (PP); sheet Array Heatmap; each array performed twice, total n = 4
Summary of the method: as §1

[4] = tested on: PHF21A; settings: GST-tagged PHF21A; sheet Array Heatmap; each array performed twice, total n = 4
Summary of the method: as §1

[5] = tested on: PHF2; settings: GST-tagged PHF2; sheet Array Heatmap; each array performed twice, total n = 4
Summary of the method: as §1

[6] = tested on: PHF8; settings: GST-tagged PHF8; sheet Array Heatmap; each array performed twice, total n = 4
Summary of the method: as §1

[7] = tested on: KDM4C (TTP); settings: GST-tagged KDM4C (TTP = Tandem Tudor domain + PHD); sheet Array Heatmap; each array performed twice, total n = 4
Summary of the method: as §1

[8] = tested on: CHD5 (PPCC); settings: GST-tagged CHD5 (PPCC = Dual PHD + Dual Chromodomain); sheet Array Heatmap; each array performed twice, total n = 4
Summary of the method: as §1

[9] = tested on: ING5; settings: GST-tagged ING5; sheet Array Heatmap; each array performed twice, total n = 4
Summary of the method: as §1

[10] = tested on: ING3; settings: GST-tagged ING3; sheet Array Heatmap; each array performed twice, total n = 4
Summary of the method: as §1

[11] = tested on: ING2; settings: GST-tagged ING2; sheet Array Heatmap; each array performed twice, total n = 4
Summary of the method: as §1

[12] = tested on: PHF23; settings: GST-tagged PHF23; sheet Array Heatmap; each array performed twice, total n = 4
Summary of the method: as §1

[13] = tested on: BAZ2B; settings: GST-tagged BAZ2B; sheet Array Heatmap; each array performed twice, total n = 4
Summary of the method: as §1

[14] = tested on: PHF13; settings: GST-tagged PHF13; sheet Array Heatmap; each array performed twice, total n = 4
Summary of the method: as §1

[15] = tested on: MLL5; settings: GST-tagged MLL5; sheet Array Heatmap; each array performed twice, total n = 4
Summary of the method: as §1

[16] = tested on: DIDO1; settings: GST-tagged DIDO1; sheet Array Heatmap; each array performed twice, total n = 4
Summary of the method: as §1

[17] = tested on: RAG2; settings: GST-tagged RAG2; sheet Array Heatmap; each array performed twice, total n = 4
Summary of the method: as §1

[18] = tested on: KDM5A (1); settings: GST-tagged KDM5A (1); sheet Array Heatmap; each array performed twice, total n = 4
Summary of the method: as §1

[19] = tested on: KDM5B (1); settings: GST-tagged KDM5B (1); sheet Array Heatmap; each array performed twice, total n = 4
Summary of the method: as §1

[20] = tested on: BPTF (PB); settings: GST-tagged BPTF (PB = PHD + Bromodomain); sheet Array Heatmap; each array performed twice, total n = 4
Summary of the method: as §1

[21] = tested on: DPF2 (PPC2W2); settings: GST-tagged DPF2 (PPC2W2 = Dual PHD + C2W2-type Zn-finger); sheet Array Heatmap; each array performed twice, total n = 4
Summary of the method: as §1

[22] = tested on: KDM5B (3); settings: GST-tagged KDM5B (3); sheet Array Heatmap; each array performed twice, total n = 4
Summary of the method: as §1

[23] = tested on: SP140L; settings: GST-tagged SP140L; sheet Array Heatmap; each array performed twice, total n = 4
Summary of the method: as §1

[24] = tested on: PHRF1 (RP); settings: GST-tagged PHRF1 (RP); sheet Array Heatmap; each array performed twice, total n = 4
Summary of the method: as §1

[25] = tested on: ING4; settings: GST-tagged ING4; sheet Array Heatmap; each array performed twice, total n = 4
Summary of the method: as §1

[26] = tested on: TAF3; settings: GST-tagged TAF3; sheet Array Heatmap; each array performed twice, total n = 4
Summary of the method: as §1

Substance | Array Heatmap signal (histone peptide microarray) [1] | Array Heatmap signal (histone peptide microarray) [2] | Array Heatmap signal (histone peptide microarray) [3] | Array Heatmap signal (histone peptide microarray) [4] | Array Heatmap signal (histone peptide microarray) [5] | Array Heatmap signal (histone peptide microarray) [6] | Array Heatmap signal (histone peptide microarray) [7] | Array Heatmap signal (histone peptide microarray) [8] | Array Heatmap signal (histone peptide microarray) [9] | Array Heatmap signal (histone peptide microarray) [10] | Array Heatmap signal (histone peptide microarray) [11] | Array Heatmap signal (histone peptide microarray) [12] | Array Heatmap signal (histone peptide microarray) [13] | Array Heatmap signal (histone peptide microarray) [14] | Array Heatmap signal (histone peptide microarray) [15] | Array Heatmap signal (histone peptide microarray) [16] | Array Heatmap signal (histone peptide microarray) [17] | Array Heatmap signal (histone peptide microarray) [18] | Array Heatmap signal (histone peptide microarray) [19] | Array Heatmap signal (histone peptide microarray) [20] | further results
H3K9me3: H3 1-20 [Peptide H3K9me3] | 0.824 | 0.5917 | 0.4645 | 0.4617 | 0.5168 | 0.3233 | 0.4665 | 0.5526 | 0.3535 | 0.491 | 0.5901 | 0.5665 | 0.4699 | 0.6291 | 0.5674 | 0.7537 | 0.2542 | 0.4576 | 0.6712 | 0.3464 | relative binding ([2]; peptide microarray, reader 0.5 μM, n = 4): no difference in binding; Array Heatmap signal (histone peptide microarray) [21]: 0.7027; Array Heatmap signal (histone peptide microarray) [22]: 0.5156; Array Heatmap signal (histone peptide microarray) [23]: 0.3305; Array Heatmap signal (histone peptide microarray) [24]: 0.7596; Array Heatmap signal (histone peptide microarray) [25]: 0.4493; Array Heatmap signal (histone peptide microarray) [26]: 0.2799
H3S10p: H3 1-20 [Peptide H3S10p] | 0.8638 | 0.6003 | 0.7118 | 0.5054 | 0.4863 | 0.4129 | 0.5402 | 0.5995 | 0.3966 | 0.4878 | 0.606 | 0.5413 | 0.5109 | 0.646 | 0.5416 | 0.6622 | 0.2741 | 0.5146 | 0.6981 | 0.3684 | Array Heatmap signal (histone peptide microarray) [21]: 0.7013; Array Heatmap signal (histone peptide microarray) [22]: 0.5217; Array Heatmap signal (histone peptide microarray) [23]: 0.3768; Array Heatmap signal (histone peptide microarray) [24]: 0.5714; Array Heatmap signal (histone peptide microarray) [25]: 0.4889; Array Heatmap signal (histone peptide microarray) [26]: 0.3504
